#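 Test compounds were applied to cells in 96-well plates for 48 hours at 5 doses. TGI: total growth inhibition.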
# Test system: 786-0 renal
# Assay: NCI anticancer screen, dose series, 48 h
row,Compound,TGI
1,CC(Oc1ccc(OCC2CCCCC2)cc1)C(=O)OCC(=O)c1ccc(-c2ccccc2)cc1 (configuration not stated),> 100 µM
2,O=[N+]([O-])c1ccc(-c2cnc3ccccn23)cc1,> 100 µM
3,COC12OCCN(C)C1=CC(=O)C1=NNC(C)C12 (configuration not stated),> 100 µM

# Test system: RXF-631 renal
# Assay: NCI anticancer screen, dose series, 48 h
row,Compound,TGI
1,Cn1c2ccccc2c2ncc3[nH]c4ccccc4c3c21,> 100 µM
2,COc1ccc(/C(Cl)=C(\C=O)c2ccc(OC)cc2)cc1,> 100 µM
3,COC12OCCN(C)C1=CC(=O)C1=NNC(C)C12 (configuration not stated),> 100 µM

# Test system: SW-620 colon
# Assay: NCI anticancer screen, dose series, 48 h
row,Compound,TGI
1,Cn1c2ccccc2c2ncc3[nH]c4ccccc4c3c21,71 µM
2,COc1ccc(/C=C(\C(C)=O)C(=O)Nc2ccccc2)cc1,> 100 µM
3,COc1ccc(/C(Cl)=C(\C=O)c2ccc(OC)cc2)cc1,> 100 µM
4,Cc1nn(C(=O)CC(=O)Nc2ccc(Cl)cc2)c(C)c1N=Nc1ccccc1C(=O)O,> 100 µM
5,Cc1cccc2c1Sc1ccccc1C2NC(=O)CCN(C)C (configuration not stated),> 100 µM
6,O=[N+]([O-])c1ccc(-c2cnc3ccccn23)cc1,> 100 µM
7,COC12OCCN(C)C1=CC(=O)C1=NNC(C)C12 (configuration not stated),> 100 µM

# Test system: NCI-H460 lung
# Assay: NCI anticancer screen, dose series, 48 h
row,Compound,TGI
1,Cn1c2ccccc2c2ncc3[nH]c4ccccc4c3c21,32.2 µM
2,COc1ccc(/C=C(\C(C)=O)C(=O)Nc2ccccc2)cc1,> 100 µM
3,COc1ccc(/C(Cl)=C(\C=O)c2ccc(OC)cc2)cc1,> 100 µM
4,Cc1nn(C(=O)CC(=O)Nc2ccc(Cl)cc2)c(C)c1N=Nc1ccccc1C(=O)O,> 100 µM
5,Cc1cccc2c1Sc1ccccc1C2NC(=O)CCN(C)C (configuration not stated),> 100 µM
6,CC(Oc1ccc(OCC2CCCCC2)cc1)C(=O)OCC(=O)c1ccc(-c2ccccc2)cc1 (configuration not stated),> 100 µM
7,O=[N+]([O-])c1ccc(-c2cnc3ccccn23)cc1,> 100 µM
8,COC12OCCN(C)C1=CC(=O)C1=NNC(C)C12 (configuration not stated),> 100 µM

# Test system: DMS 273 small cell lung
# Assay: NCI anticancer screen, dose series, 48 h
row,Compound,TGI
1,Cn1c2ccccc2c2ncc3[nH]c4ccccc4c3c21,34.7 µM
2,COc1ccc(/C(Cl)=C(\C=O)c2ccc(OC)cc2)cc1,> 100 µM
3,Cc1nn(C(=O)CC(=O)Nc2ccc(Cl)cc2)c(C)c1N=Nc1ccccc1C(=O)O,> 100 µM
4,Cc1cccc2c1Sc1ccccc1C2NC(=O)CCN(C)C (configuration not stated),> 100 µM
5,CC(Oc1ccc(OCC2CCCCC2)cc1)C(=O)OCC(=O)c1ccc(-c2ccccc2)cc1 (configuration not stated),> 100 µM
6,O=[N+]([O-])c1ccc(-c2cnc3ccccn23)cc1,> 100 µM
7,COC12OCCN(C)C1=CC(=O)C1=NNC(C)C12 (configuration not stated),> 100 µM

# Test system: SK-OV-3 ovarian
# Assay: NCI anticancer screen, dose series, 48 h
row,Compound,TGI
1,Cn1c2ccccc2c2ncc3[nH]c4ccccc4c3c21,80.8 µM
2,COc1ccc(/C=C(\C(C)=O)C(=O)Nc2ccccc2)cc1,> 100 µM
3,COc1ccc(/C(Cl)=C(\C=O)c2ccc(OC)cc2)cc1,> 100 µM
4,Cc1nn(C(=O)CC(=O)Nc2ccc(Cl)cc2)c(C)c1N=Nc1ccccc1C(=O)O,> 100 µM
5,Cc1cccc2c1Sc1ccccc1C2NC(=O)CCN(C)C (configuration not stated),> 100 µM
6,CC(Oc1ccc(OCC2CCCCC2)cc1)C(=O)OCC(=O)c1ccc(-c2ccccc2)cc1 (configuration not stated),> 100 µM
7,O=[N+]([O-])c1ccc(-c2cnc3ccccn23)cc1,> 100 µM
8,COC12OCCN(C)C1=CC(=O)C1=NNC(C)C12 (configuration not stated),> 100 µM

# Test system: UACC-62 melanoma
# Assay: NCI anticancer screen, dose series, 48 h
row,Compound,TGI
1,Cn1c2ccccc2c2ncc3[nH]c4ccccc4c3c21,41.7 µM
2,COc1ccc(/C=C(\C(C)=O)C(=O)Nc2ccccc2)cc1,> 100 µM
3,COc1ccc(/C(Cl)=C(\C=O)c2ccc(OC)cc2)cc1,> 100 µM
4,Cc1nn(C(=O)CC(=O)Nc2ccc(Cl)cc2)c(C)c1N=Nc1ccccc1C(=O)O,> 100 µM
5,Cc1cccc2c1Sc1ccccc1C2NC(=O)CCN(C)C (configuration not stated),> 100 µM
6,CC(Oc1ccc(OCC2CCCCC2)cc1)C(=O)OCC(=O)c1ccc(-c2ccccc2)cc1 (configuration not stated),> 100 µM
7,O=[N+]([O-])c1ccc(-c2cnc3ccccn23)cc1,> 100 µM
8,COC12OCCN(C)C1=CC(=O)C1=NNC(C)C12 (configuration not stated),> 100 µM

# Test system: SK-MEL-28 melanoma
# Assay: NCI anticancer screen, dose series, 48 h
row,Compound,TGI
1,Cn1c2ccccc2c2ncc3[nH]c4ccccc4c3c21,31.7 µM
2,COc1ccc(/C=C(\C(C)=O)C(=O)Nc2ccccc2)cc1,> 100 µM
3,Cc1nn(C(=O)CC(=O)Nc2ccc(Cl)cc2)c(C)c1N=Nc1ccccc1C(=O)O,> 100 µM
4,Cc1cccc2c1Sc1ccccc1C2NC(=O)CCN(C)C (configuration not stated),> 100 µM
5,CC(Oc1ccc(OCC2CCCCC2)cc1)C(=O)OCC(=O)c1ccc(-c2ccccc2)cc1 (configuration not stated),> 100 µM
6,O=[N+]([O-])c1ccc(-c2cnc3ccccn23)cc1,> 100 µM
7,COC12OCCN(C)C1=CC(=O)C1=NNC(C)C12 (configuration not stated),> 100 µM

# Test system: SR leukemia
# Assay: NCI anticancer screen, dose series, 48 h
row,Compound,TGI
1,COc1ccc(/C=C(\C(C)=O)C(=O)Nc2ccccc2)cc1,> 100 µM
2,COc1ccc(/C(Cl)=C(\C=O)c2ccc(OC)cc2)cc1,78.8 µM
3,Cc1cccc2c1Sc1ccccc1C2NC(=O)CCN(C)C (configuration not stated),> 100 µM
4,O=[N+]([O-])c1ccc(-c2cnc3ccccn23)cc1,> 100 µM

# Test system: MALME-3M melanoma
# Assay: NCI anticancer screen, dose series, 48 h
row,Compound,TGI
1,Cn1c2ccccc2c2ncc3[nH]c4ccccc4c3c21,> 100 µM
2,COc1ccc(/C=C(\C(C)=O)C(=O)Nc2ccccc2)cc1,> 100 µM
3,COc1ccc(/C(Cl)=C(\C=O)c2ccc(OC)cc2)cc1,> 100 µM
4,Cc1nn(C(=O)CC(=O)Nc2ccc(Cl)cc2)c(C)c1N=Nc1ccccc1C(=O)O,> 100 µM
5,CC(Oc1ccc(OCC2CCCCC2)cc1)C(=O)OCC(=O)c1ccc(-c2ccccc2)cc1 (configuration not stated),> 100 µM
6,O=[N+]([O-])c1ccc(-c2cnc3ccccn23)cc1,> 100 µM

# Test system: IGROV1 ovarian
# Assay: NCI anticancer screen, dose series, 48 h
row,Compound,TGI
1,Cn1c2ccccc2c2ncc3[nH]c4ccccc4c3c21,58.2 µM
2,COc1ccc(/C=C(\C(C)=O)C(=O)Nc2ccccc2)cc1,> 100 µM
3,COc1ccc(/C(Cl)=C(\C=O)c2ccc(OC)cc2)cc1,> 100 µM
4,Cc1nn(C(=O)CC(=O)Nc2ccc(Cl)cc2)c(C)c1N=Nc1ccccc1C(=O)O,> 100 µM
5,Cc1cccc2c1Sc1ccccc1C2NC(=O)CCN(C)C (configuration not stated),> 100 µM
6,CC(Oc1ccc(OCC2CCCCC2)cc1)C(=O)OCC(=O)c1ccc(-c2ccccc2)cc1 (configuration not stated),> 100 µM
7,COC12OCCN(C)C1=CC(=O)C1=NNC(C)C12 (configuration not stated),> 100 µM

# Test system: HCT-15 colon
# Assay: NCI anticancer screen, dose series, 48 h
row,Compound,TGI
1,Cn1c2ccccc2c2ncc3[nH]c4ccccc4c3c21,63.7 µM
2,COc1ccc(/C=C(\C(C)=O)C(=O)Nc2ccccc2)cc1,> 100 µM
3,COc1ccc(/C(Cl)=C(\C=O)c2ccc(OC)cc2)cc1,> 100 µM
4,Cc1nn(C(=O)CC(=O)Nc2ccc(Cl)cc2)c(C)c1N=Nc1ccccc1C(=O)O,> 100 µM
5,Cc1cccc2c1Sc1ccccc1C2NC(=O)CCN(C)C (configuration not stated),> 100 µM
6,CC(Oc1ccc(OCC2CCCCC2)cc1)C(=O)OCC(=O)c1ccc(-c2ccccc2)cc1 (configuration not stated),> 100 µM
7,O=[N+]([O-])c1ccc(-c2cnc3ccccn23)cc1,> 100 µM
8,COC12OCCN(C)C1=CC(=O)C1=NNC(C)C12 (configuration not stated),> 100 µM

# Test system: U251 CNS
# Assay: NCI anticancer screen, dose series, 48 h
row,Compound,TGI
1,Cn1c2ccccc2c2ncc3[nH]c4ccccc4c3c21,39.9 µM
2,COc1ccc(/C=C(\C(C)=O)C(=O)Nc2ccccc2)cc1,> 100 µM
3,COc1ccc(/C(Cl)=C(\C=O)c2ccc(OC)cc2)cc1,> 100 µM
4,Cc1nn(C(=O)CC(=O)Nc2ccc(Cl)cc2)c(C)c1N=Nc1ccccc1C(=O)O,> 100 µM
5,Cc1cccc2c1Sc1ccccc1C2NC(=O)CCN(C)C (configuration not stated),> 100 µM
6,CC(Oc1ccc(OCC2CCCCC2)cc1)C(=O)OCC(=O)c1ccc(-c2ccccc2)cc1 (configuration not stated),> 100 µM
7,O=[N+]([O-])c1ccc(-c2cnc3ccccn23)cc1,> 100 µM
8,COC12OCCN(C)C1=CC(=O)C1=NNC(C)C12 (configuration not stated),> 100 µM

# Test system: MOLT-4 leukemia
# Assay: NCI anticancer screen, dose series, 48 h
row,Compound,TGI
1,Cn1c2ccccc2c2ncc3[nH]c4ccccc4c3c21,67.4 µM
2,COc1ccc(/C=C(\C(C)=O)C(=O)Nc2ccccc2)cc1,> 100 µM
3,COc1ccc(/C(Cl)=C(\C=O)c2ccc(OC)cc2)cc1,> 100 µM
4,Cc1nn(C(=O)CC(=O)Nc2ccc(Cl)cc2)c(C)c1N=Nc1ccccc1C(=O)O,> 100 µM
5,Cc1cccc2c1Sc1ccccc1C2NC(=O)CCN(C)C (configuration not stated),> 100 µM
6,CC(Oc1ccc(OCC2CCCCC2)cc1)C(=O)OCC(=O)c1ccc(-c2ccccc2)cc1 (configuration not stated),> 100 µM
7,O=[N+]([O-])c1ccc(-c2cnc3ccccn23)cc1,> 100 µM
8,COC12OCCN(C)C1=CC(=O)C1=NNC(C)C12 (configuration not stated),> 100 µM

# Test system: DLD-1 colon
# Assay: NCI anticancer screen, dose series, 48 h
row,Compound,TGI
1,Cn1c2ccccc2c2ncc3[nH]c4ccccc4c3c21,> 100 µM
2,COc1ccc(/C=C(\C(C)=O)C(=O)Nc2ccccc2)cc1,> 100 µM
3,COc1ccc(/C(Cl)=C(\C=O)c2ccc(OC)cc2)cc1,> 100 µM
4,Cc1nn(C(=O)CC(=O)Nc2ccc(Cl)cc2)c(C)c1N=Nc1ccccc1C(=O)O,> 100 µM
5,Cc1cccc2c1Sc1ccccc1C2NC(=O)CCN(C)C (configuration not stated),> 100 µM
6,CC(Oc1ccc(OCC2CCCCC2)cc1)C(=O)OCC(=O)c1ccc(-c2ccccc2)cc1 (configuration not stated),> 100 µM
7,COC12OCCN(C)C1=CC(=O)C1=NNC(C)C12 (configuration not stated),> 100 µM

# Test system: LXFL 529 NSCLC
# Assay: NCI anticancer screen, dose series, 48 h
row,Compound,TGI
1,Cn1c2ccccc2c2ncc3[nH]c4ccccc4c3c21,80.1 µM
2,COc1ccc(/C=C(\C(C)=O)C(=O)Nc2ccccc2)cc1,> 100 µM
3,COc1ccc(/C(Cl)=C(\C=O)c2ccc(OC)cc2)cc1,> 100 µM
